Test results published in patent US9834514B2, “Antibiotic sensitivity-restoring and photosensitive agents” (New Mexico Tech Research Foundation, priority 2015, dated 2017).
Values after ≈ are worked out from the molar mass of the structure shown. Read-outs that look alike come from different tables or passages of the source.

Assays:
P. aeruginosa = test: Resensitization to antibiotics (log reduction, TABLE 29); format: cell-based; conditions: compound 20 μM
[1] = MIC against MRSA isolates; format: cell-based, S. aureus; conditions: Staphylococcus aureus
Protocol: The MICs of S. aureus ATCC 33591, BAA-44, BAA-1707, BAA-1717, BAA-1720, BAA-1747, BAA-1754, BAA-1761, BAA-1763, BAA-1764, and BAA-1766 were measured using a cell concentration of about 5×10^5 colony forming units (CFU)/mL. In a 96-well microtiter plate, two-fold dilutions were made of each drug (starting with 100 μM) in 100 μL of a cell suspension in trypticase soy broth (TSB). The samples were incubated overnight at 37° C. on a rotary shaking incubator set at 100 revolutions per minute (rpm) and were visually inspected for turbidity. A 20% well-volume of 3-(4,5-dimethylthiazol-2-yl)-2,5-diphenyltetrazolium bromide (MTT reagent, 5 mg/mL) was added, and the samples were incubated for about 20 minutes. The MICs were determined as the lowest concentration at which full visual inhibition was observed by the unaided eye.

VRE = test: Resensitization to antibiotics (log reduction, TABLE 29); format: cell-based, Enterococcus faecalis; conditions: compound 1 μM; Light (2 min)
[2] = tested on: Klebsiella pneumoniae (CRE, ATCC BAA-1705); test: MIC against CRE; format: cell-based; conditions: Klebsiella pneumoniae, ATCCBAA1705
Protocol: TABLE 27 details the individual MIC values of compounds 1, 7, 8, 9, 10, 11, PMB, PME, and light against CRE.
The MICs of PME and compounds 8-11 were determined against Klebsiella pneumoniae (CRE, ATCC BAA-1705). […] After the incubation with PME, the compounds were added at a concentration of 20 μM, and the samples were further incubated. At specific time points, the samples were taken and diluted ten-fold in media. Ten microliters of each dilution was then drip-streaked onto an agar plate and incubated overnight at 37° C. Colony counts were then performed and the CFU/mL were calculated.

[3] = tested on: MRSA isolates (S. aureus ATCC 33591, BAA-44, BAA-1707, BAA-1717, BAA-1720, BAA-1747, BAA-1754, BAA-1761, BAA-1763, BAA-1764, BAA-1766); test: Combination effects of compounds 7-11 and antibiotics on MRSA isolates (turbidity); format: cell-based
Description: Inhibition resulting from co-treatment of a broth suspension with a compound of the invention and an antibiotic was compared to broth suspensions subjected to each individual treatment. A visual observation of inhibition with the unaided eye upon co-treatment of the broth suspensions, based on turbidity, was considered synergistic.
Exceptions to reading complete inhibition of growth included Gram-positive cocci. For Gram-positive cocci, trailing growth was observed. For these species, the MICs were read at the first spot where trailing was observed, and tiny buttons of growth were ignored. […]
Two-fold dilutions of the antibiotics were prepared in a liquid growth medium dispensed in test tubes. […] The antibiotic-containing tubes were inoculated with a standard bacterial suspension of 5×10^5 CFU/mL. Following an overnight incubation (16-20 hrs) at 35±2° C. under ambient air, the tubes were examined for visible bacterial growth based on turbidity. The lowest concentration of antibiotic that prevented growth was determined to be the MIC. An incubation time of 24 hrs was used to determine the MICs of oxacillin and vancomycin.

S. aureus (ATCC 29213) = test: microbe, parasite or virus in culture; format: cell-based
Protocol: Each mixture was incubated at 37° C. on a rotary shaking incubator for about 16 hours. MTT was then added to assess the viability of the cells (at 10% well volume). […] The cells were then streaked onto a TSA plate and incubated overnight at 37° C. These steps were repeated to reach a total of 30 exposures.

[4] = tested on: Klebsiella pneumoniae (CRE, ATCC BAA-1705); test: Time-dependent colony counts of CRE with compounds and PME; format: cell-based; conditions: PME 0.2 μg/mL, compound 20 μM; FIGS. 48, 49
Protocol: The MICs of PME and compounds 8-11 were determined against Klebsiella pneumoniae (CRE, ATCC BAA-1705). […] […] At specific time points, the samples were taken and diluted ten-fold in media. Ten microliters of each dilution was then drip-streaked onto an agar plate and incubated overnight at 37° C. Colony counts were then performed and the CFU/mL were calculated.

[5] = MRSA (ATCC BAA-44), TABLE 21, read-out: MRSA MIC
[6] = MRSA isolate ATCC BAA-44, read-out: MIC

Clc1ccc(/C=C/c2[nH]c3ccccc3c2/C=C/c2ccc(Cl)cc2)cc1 [Compound 1]
Log Reduction (P. aeruginosa; PME (0.1 μg/mL)): 2 | Log Reduction (P. aeruginosa; PME (0.1 μg/mL) + Light (2 min)): 8 | MIC [1, 5]: 400 µM (≈ 156 µg/mL) | MIC [1, 6]: 400 µM (≈ 156 µg/mL) | Log Reduction (VRE): 8-9 | MIC [2]: > 100 µM

Clc1ccc(/N=N/c2c[nH]c3ccccc23)cc1 [Compound 9]
Log Reduction (P. aeruginosa; PME (0.1 μg/mL)): 2 | MIC [1, 5]: 16 µM (≈ 4.09 µg/mL) | MIC ([1]; MRSA isolate ATCC 33591, read-out: MIC): 12.5 µM (≈ 3.2 µg/mL) | MIC [1, 6]: 16 µM (≈ 4.09 µg/mL) | MIC ([1]; MRSA isolate ATCC BAA-1707, read-out: MIC): 12.5 µM (≈ 3.2 µg/mL) | MIC ([1]; MRSA isolate ATCC BAA-1717, read-out: MIC): 6.3 to 12.5 µM (≈ 1.61 to 3.2 µg/mL) | MIC ([1]; MRSA isolate ATCC BAA-1720, read-out: MIC): 12.5 µM (≈ 3.2 µg/mL) | MIC ([1]; MRSA isolate ATCC BAA-1747, read-out: MIC): 12.5 µM (≈ 3.2 µg/mL) | MIC ([1]; MRSA isolate ATCC BAA-1754, read-out: MIC): 12.5 µM (≈ 3.2 µg/mL) | MIC ([1]; MRSA isolate ATCC BAA-1761, read-out: MIC): 12.5 µM (≈ 3.2 µg/mL) | MIC ([1]; MRSA isolate ATCC BAA-1763, read-out: MIC): 12.5 µM (≈ 3.2 µg/mL) | MIC ([1]; MRSA isolate ATCC BAA-1764, read-out: MIC): 12.5 µM (≈ 3.2 µg/mL) | MIC ([1]; MRSA isolate ATCC BAA-1766, read-out: MIC): 12.5 µM (≈ 3.2 µg/mL) | combination effect with Gentamycin ([3]; MRSA ATCC 33591): No Synergy | combination effect with Norfloxacin ([3]; MRSA ATCC 33591): No Synergy | combination effect with Oxacillin ([3]; MRSA ATCC 33591): No Synergy | combination effect with Tetracycline ([3]; MRSA ATCC 33591): No Synergy | combination effect with Vancomycin ([3]; MRSA ATCC 33591): Susceptible | combination effect with Norfloxacin ([3]; MRSA ATCC BAA-44): No Synergy | combination effect with Oxacillin ([3]; MRSA ATCC BAA-44): No Synergy | combination effect with Tetracycline ([3]; MRSA ATCC BAA-44): Susceptible | combination effect with Vancomycin ([3]; MRSA ATCC BAA-44): Susceptible | combination effect with Gentamycin ([3]; MRSA ATCC BAA-1707): Susceptible | combination effect with Norfloxacin ([3]; MRSA ATCC BAA-1707): Susceptible | combination effect with Oxacillin ([3]; MRSA ATCC BAA-1707): Susceptible | combination effect with Tetracycline ([3]; MRSA ATCC BAA-1707): No Synergy | combination effect with Vancomycin ([3]; MRSA ATCC BAA-1707): Susceptible | combination effect with Gentamycin ([3]; MRSA ATCC BAA-1717): Susceptible | combination effect with Norfloxacin ([3]; MRSA ATCC BAA-1717): Susceptible | combination effect with Oxacillin ([3]; MRSA ATCC BAA-1717): Synergy | combination effect with Tetracycline ([3]; MRSA ATCC BAA-1717): Susceptible | combination effect with Vancomycin ([3]; MRSA ATCC BAA-1717): Susceptible | combination effect with Gentamycin ([3]; MRSA ATCC BAA-1720): Susceptible | combination effect with Norfloxacin ([3]; MRSA ATCC BAA-1720): No Synergy | combination effect with Oxacillin ([3]; MRSA ATCC BAA-1720): Synergy | combination effect with Tetracycline ([3]; MRSA ATCC BAA-1720): Susceptible | combination effect with Vancomycin ([3]; MRSA ATCC BAA-1720): Susceptible | combination effect with Gentamycin ([3]; MRSA ATCC BAA-1747): Susceptible | combination effect with Norfloxacin ([3]; MRSA ATCC BAA-1747): Susceptible | combination effect with Oxacillin ([3]; MRSA ATCC BAA-1747): Susceptible | combination effect with Tetracycline ([3]; MRSA ATCC BAA-1747): Susceptible | combination effect with Vancomycin ([3]; MRSA ATCC BAA-1747): Susceptible | combination effect with Gentamycin ([3]; MRSA ATCC BAA-1754): Susceptible | combination effect with Norfloxacin ([3]; MRSA ATCC BAA-1754): Susceptible | combination effect with Oxacillin ([3]; MRSA ATCC BAA-1754): No Synergy | combination effect with Tetracycline ([3]; MRSA ATCC BAA-1754): Susceptible | combination effect with Vancomycin ([3]; MRSA ATCC BAA-1754): Susceptible | combination effect with Gentamycin ([3]; MRSA ATCC BAA-1761): Susceptible | combination effect with Norfloxacin ([3]; MRSA ATCC BAA-1761): No Synergy | combination effect with Oxacillin ([3]; MRSA ATCC BAA-1761): Susceptible | combination effect with Tetracycline ([3]; MRSA ATCC BAA-1761): Susceptible | combination effect with Vancomycin ([3]; MRSA ATCC BAA-1761): Susceptible | combination effect with Gentamycin ([3]; MRSA ATCC BAA-1763): Susceptible | combination effect with Norfloxacin ([3]; MRSA ATCC BAA-1763): No Synergy | combination effect with Oxacillin ([3]; MRSA ATCC BAA-1763): Synergy | combination effect with Tetracycline ([3]; MRSA ATCC BAA-1763): Susceptible | combination effect with Vancomycin ([3]; MRSA ATCC BAA-1763): Susceptible | combination effect with Gentamycin ([3]; MRSA ATCC BAA-1764): Susceptible | combination effect with Norfloxacin ([3]; MRSA ATCC BAA-1764): Susceptible | combination effect with Oxacillin ([3]; MRSA ATCC BAA-1764): Synergy | combination effect with Tetracycline ([3]; MRSA ATCC BAA-1764): Susceptible | combination effect with Vancomycin ([3]; MRSA ATCC BAA-1764): Susceptible | combination effect with Gentamycin ([3]; MRSA ATCC BAA-1766): Susceptible | combination effect with Norfloxacin ([3]; MRSA ATCC BAA-1766): Susceptible | combination effect with Oxacillin ([3]; MRSA ATCC BAA-1766): Synergy | combination effect with Tetracycline ([3]; MRSA ATCC BAA-1766): Susceptible | combination effect with Vancomycin ([3]; MRSA ATCC BAA-1766): Susceptible | Resistance Evolved (S. aureus (ATCC 29213)): No | MIC (S. aureus (ATCC 29213); Staphylococcus aureus, ATCC29213, read-out: Final MIC Apr. 16, 2015): 8 µM (≈ 2.05 µg/mL) | CRE colony populations on simultaneous treatment with PME [4]: reduced the CRE colony populations to sterility | MIC [2]: > 100 µM
